Test results reported in patent US20210283087A1, “METHOD FOR TREATING AND RELIEVING MYOPIA” (China Medical University, priority 2014, published 2021).

Legend:
[1] = tested on: sclera or retina of guinea pig MFD eye; experiment: Immunohistochemistry of guinea pig MFD eyes; assay type: in vivo
Procedure: Eyes were collected from atropine-treated and control animals, embedded in paraffin, and cut at a thickness of 20 μm; subsequently, the sections were placed on glass slides. Antigen retrieval was performed by boiling the slides in citrate buffer (pH 6.0); the sections were then stained with antibodies against IL-6, TNF-α, TGF-β, MMP2, c-Fos, NF-κB, and CHRM1 and 3. The EnVision System peroxidase kit (DAKO, Carpentaria, Calif., USA) was used to visualize immunoreactivity.
We observed a similar increase in inflammatory response in hamsters as we did in a guinea pig model of MFD.

[2] = tested on: primary sclera fibroblast; experiment: Immunofluorescence of MMP2 and COL1 in primary scleral fibroblasts; assay type: cell-based, rat; details: 100 μM atropine for 24 hours
Procedure: Primary sclera fibroblast cells plating on cover slides were washed with Tris-buffered saline (TBS), and subsequently fixed with 4% paraformaldehyde and washed twice with TBS before blocking with 1% BSA and 0.1% Triton X-100 for 1 hour. The cells were incubated with anti-MMP2 or anti-COL1 for 1 hour before being washed three times with TBS and subsequently incubated with an appropriate secondary antibody and a 4′,6-diamidino-2-phenylindole (DAPI) DNA stain. After being washed three times with TBS, the cells were imaged using fluorescence microscopy. All experiments were performed at least in triplicate.

MMP2 = experiment: Gelatin zymography of MMP2 activity in LPS-activated scleral fibroblasts and ARPE-19 cells; assay type: cell-based; details: LPS + 100 μM atropine or LPS + 50 μM diacerein; 48 hours
Procedure: To facilitate subsequent analysis, 1×10^6 cells were seeded in 24-well plates for at least 12 hours. […] To measure the MMP-2/MMP-9 activities, samples were separated using 8% SDS-PAGE containing 0.1% gelatin.

CN1[C@@H]2CC[C@H]1C[C@@H](OC(=O)C(CO)c1ccccc1)C2 (stereo partly drawn) [Atropine, atropine]
MFD downregulation of IL-10 level ([1]; atropine): suppressed
COL1 expression in sclera or retina of the MFD eye ([1]; atropine compared to PBS): increased
MMP2, TGF-β, and c-Fos expression in sclera or retina of the MFD eye ([1]; atropine compared to PBS): reduced
COL1 expression [2]: increased
Expression levels of MMP2 [2]: inhibited
MMP2 activities in cells activated by LPS (MMP2): decreased
